US20080226682A1, “Immunoactive Compositions for Improved Oral Delivery of Vaccines and Therapeutic Agents” (PerOs Systems Technologies, Inc., priority 2007, published 2008)
Where two headings read alike, the source gives them in different places.

Legend:
[1] = test system: LPS induced NO generation in RAW264.7 cells; assay: PUFA pretreatment, LPS induced NO generation in RAW264.7
[2] = Plasma pharmacokinetics of antibiotics (HPLC); assay type: in vivo, Coho salmon (Oncorhynchus kisutch); details: for AUC, times higher in Formula 2 than same concentration in commercial feed: oral, same dose in both; for Cmax / Tmax / AUC(0-t): plasma; for AUC(0-t): read-out: AUC(0-120 h)
Experimental: In the first study, Coho salmon (n-70 fish/group) were treated with flumequine at a dose of 30 mg/kg incorporated in commercial feed or in formula F2. In the second study, fish were treated orally with florfenicol, antibiotic was given at 15 mg/kg incorporated in commercial feed or at 15 and 50 mg/kg in formula F2. In addition, florfenicol was also given via i.p. injection at 20 mg/kg. At predetermined time periods post-administration, blood samples were collected via the caudal vein according to routine procedures. Levels of antibiotics in plasma of fish were determined by high performance liquid chromatography (HPLC).

[3] = test system: human immune cells; details: purified isoflavone
[4] = test system: salmon immune cells; details: purified isoflavone
[5] = test system: canine immune cells; details: purified isoflavone
[6] = test system: trout immune cells; assay type: cell-based; details: purified isoflavone
Excerpt: The pellet is suspended in RPMI medium.

[7] = test system: shrimp immune cells; details: purified isoflavone
[8] = test system: feline immune cells; details: purified isoflavone
[9] = test system: swine immune cells; details: purified isoflavone
[10] = test system: bovine immune cells; details: purified isoflavone
[11] = test system: equine immune cells; details: purified isoflavone
[12] = test system: PHA induced IFN-gamma production in calf PBMC; assay: PHA induced IFN-gamma production in calf PBMC; assay type: cell-based; details: PHA-E+L 1 ug/ml, 3 days, FIG. 9
Experimental: Calf PBMC were isolated as described in Example 3. […] After incubation, supernatants were sampled. Supernatants from identical treatment wells were combined and stored frozen at −18±5° C. until tested for IFN-gamma. Supernatant samples were tested for bovine IFN-gamma using a commercial kit (Thermo Scientific). Briefly, plates were coated overnight with capture antibody in carbonate coating buffer. […] Plates were washed and treated with streptavidin-HRP for 30 minutes at RT. Plates were washed and substrate was added for 20 minutes at RT in the dark. Following incubation, stop solution was added to each well, and plates were read at 450 nm (550 nm reference wavelength). Data was plotted as Stimulation Index (IFN-gamma concentration of sample treated with isoflavone divided by IFN-gamma concentration of sample treated with PHA only) vs. isoflavone concentration. Since isoflavones dilutions were made in DMSO, the DMSO carrier was tested at the corresponding concentrations to determine the carrier effect.

[13] = test system: LPS-induced NO generation in RAW264.7 cells; assay: LPS-induced NO generation in RAW264.7 cells (1 hour pretreatment with isoflavones or saponins); assay type: cell-based, murine
Experimental: In yet another exemplary embodiment, the ability of isoflavones to modulate the production of LPS-induced NO generation in RAW264.7 cells was investigated. […] Cells were incubated with isoflavones for 1 hour at 37±2° C.
Cells were incubated with saponins 1 hour at 37±2° C.

[14] = Blood glucose after oral administration of insulin; assay type: in vivo, CD1 mice; details: FIG. 14
Experimental: Preparation of protease inhibitor extracts. Protease inhibitors (4.44 g beans and 0.56 g albumen) were homogenized in Tris-HCL buffer (pH 7.5). The mixture was divided in equal volumes, centrifuged (3500 RPM for 10 minutes) and supernatants were pooled together. Supernatant was then concentrated by centrifugation through 10K cut-off Millipore filter tubes.
Preparation of uptake-increasing agents solution. In a 15 ml falcon tube, 1 ml of carbonate-bicarbonate buffer (0.25 M, pH 9.5) was added to 45 mg of sodium deoxycholate and stirred until complete dissolution. In another 15 ml falcon tube, 7 ml of carbonate-bicarbonate buffer (0.25 M, pH 9.5) was added to 450 mg of EDTA and stirred until complete dissolution. Both solutions were then pooled together.
Final preparation of liquid formulation. […] The liquid formulation was then kept at 4° C. until use.
Experimental Design. Twenty four female CD1 mice of an average weight of 30 g were used in this study (see Table 14 for the identification of experimental groups). […]
CD1 mice were gavaged with insulin (200 U/kg) incorporated in a liquid composition (group A) and in water (group B). […] At determined time periods post-administration (see Table 13), blood samples were taken via the retroorbital sinus and blood glucose levels were measured individually for each animal using an Ascencia™ DEX-2 blood glucose meter kit.

[15] = po, 15 mg/kg, oral in Oralject ™ (F2)
[16] = po, 15 mg/kg, oral in commercial feed
[17] = po, 50 mg/kg, oral in Oralject ™ (F2)
[18] = po, 30 mg/kg, oral in Oralject ™ (F2)
[19] = po, 30 mg/kg, oral in commercial feed

With CCCCC/C=C\C/C=C\C/C=C\C/C=C\CCCC(=O)O [AA, arachidonic acid] the “concentration required to inhibit to a similar level (40%)” value ([1]; 24 hours pretreatment, LPS 1 μg/ml 8 hours) was 100 µM and the immunomodulatory activity ([1]; FIG. 8) was “marginal to no immunomodulatory activity”.
In the case of CC/C=C\C/C=C\C/C=C\C/C=C\C/C=C\CCCCCC(=O)O [DPA, docosapentaenoic acid], the “inhibition (text: of proliferation; FIG. 8: of LPS induced NO production)” value ([1]; 1 μM PUFA, 24 hours pretreatment, LPS 1 μg/ml 8 hours) is reported as 40% and the “fold more effective at inhibiting than the N-6 PUFA, AA” value ([1]; FIG. 8) is reported as 10-100 fold.
With CS(=O)(=O)c1ccc([C@@H](O)[C@@H](CF)NC(=O)C(Cl)Cl)cc1 [Florfenicol] the “AUC, times higher in Formula 2 than same concentration in commercial feed” value [2] was 5.2 times, the Cmax ([2]; ip, 20 mg/kg, i.p. injection) was 7050 ng/mL and the Tmax ([2]; ip, 20 mg/kg, i.p. injection) was 4 h. It also gave an AUC(0-t) ([2]; ip, 20 mg/kg, i.p. injection, 20 mg/kg) of 196000 ng·h/mL, a Cmax [2, 15] of 2150 ng/mL and a Tmax [2, 15] of 16 h. It also gave an AUC(0-t) ([2]; po, 15 mg/kg, oral in Oralject ™ (F2), 15 mg/kg) of 34400 ng·h/mL, a Cmax [2, 16] of 1380 ng/mL and a Tmax [2, 16] of 8 h. The AUC(0-t) ([2]; po, 15 mg/kg, oral in commercial feed, 15 mg/kg) was 6700 ng·h/mL, the Cmax [2, 17] was 7960 ng/mL and the Tmax [2, 17] was 6 h. It also gave an AUC(0-t) ([2]; po, 50 mg/kg, oral in Oralject ™ (F2), 50 mg/kg) of 136000 ng·h/mL.
In the case of CC1CCc2cc(F)cc3c(=O)c(C(=O)O)cn1c23 (stereo not shown) [Flumequine], the “peak plasma concentration, fold higher via Formula 2 than with commercial feed” value ([2]; 30 mg/kg oral, FIG. 17) is reported as “approximately 5 fold”, the “AUC, times higher in Formula 2 than same concentration in commercial feed” value [2] is reported as 3.7 times and the Cmax [2, 18] is reported as 440 ng/mL. For the same compound, the Tmax [2, 18] was 2 h, the AUC(0-t) ([2]; po, 30 mg/kg, oral in Oralject ™ (F2), 30 mg/kg) was 61900 ng·h/mL and the Cmax [2, 19] was 2290 ng/mL. It also gave a Tmax [2, 19] of 8 h and an AUC(0-t) ([2]; po, 30 mg/kg, oral in commercial feed, 30 mg/kg) of 16800 ng·h/mL.
For CCCCC/C=C\C/C=C\CCCCCCCC(=O)O [LA, linoleic acid], the immunomodulatory activity ([1]; FIG. 8) was “marginal to no immunomodulatory activity”.
In the case of COc1ccc(-c2coc3cc(O)cc(O)c3c2=O)cc1 [biochanin A, 5,7-dihydroxy 4′-methoxy isoflavone], the “Cytokine Secretion Profile (determined by RT-PCR)” value (shortened to “Cytokine Secretion Profile”) [3] is reported as “none”, the “Cytokine Secretion Profile” value [4] is reported as “IL-4” and the “Cytokine Secretion Profile” value [5] is reported as “IL-4, IL-10”. The “Cytokine Secretion Profile” value [6] was “None”, the “Cytokine Secretion Profile” value [7] was “None” and the “Cytokine Secretion Profile” value [8] was “IL-4, IL-10”. For the same compound, the “Cytokine Secretion Profile” value [9] was “None”, the “Cytokine Secretion Profile” value [10] was “None” and the “Cytokine Secretion Profile” value [11] was “IL-10”. The “effect on stimulation indices (IFN-gamma) compared to DMSO control” value (from here on “effect … compared to DMSO control”) ([12]; 1 μM isoflavone) was “pronounced increase”, the “effect … compared to DMSO control” value ([12]; 100 μM isoflavone) was “inhibitory effect” and the “fold higher inhibitory activity compared to daidzein or genistein” value ([13]; 25 μM, FIG. 10) was “approximately 10 fold”.
In the case of O=c1c(-c2ccc(O)cc2)coc2cc(O)ccc12 [daidzein], the “Cytokine Secretion Profile” value [3] is reported as “IFN-gamma”, the “Cytokine Secretion Profile” value [4] is reported as “IFN-gamma” and the “Cytokine Secretion Profile” value [5] is reported as “None”. For the same compound, the “Cytokine Secretion Profile” value [6] was “IFN-gamma”, the “Cytokine Secretion Profile” value [7] was “IFN-gamma” and the “Cytokine Secretion Profile” value [8] was “IL-4”. The “Cytokine Secretion Profile” value [9] was “None”, the “Cytokine Secretion Profile” value [10] was “IL-10” and the “Cytokine Secretion Profile” value [11] was “None”. For the same compound, the “effect … compared to DMSO control” value ([12]; 10 nM or 100 nM isoflavone) was “pronounced decrease”, the “effect … compared to DMSO control” value ([12]; 1 μM isoflavone) was “pronounced increase” and the “effect … compared to DMSO control” value ([12]; 100 μM isoflavone) was “inhibitory effect”.
For O=c1c(-c2ccc(O)cc2)coc2cc(O)cc(O)c12 [genistein, 4′5,7-trihydroxyisoflavone], the “Cytokine Secretion Profile” value [3] was “IL-10”, the “Cytokine Secretion Profile” value [4] was “IL-10” and the “Cytokine Secretion Profile” value [5] was “None”. For the same compound, the “Cytokine Secretion Profile” value [6] was “IL-4, IL-10”, the “Cytokine Secretion Profile” value [7] was “None” and the “Cytokine Secretion Profile” value [8] was “None”. The “Cytokine Secretion Profile” value [9] was “IL-4”, the “Cytokine Secretion Profile” value [10] was “IL-10” and the “Cytokine Secretion Profile” value [11] was “None”. The “effect … compared to DMSO control” value ([12]; 10 nM or 100 nM isoflavone) was “pronounced decrease”, the “effect … compared to DMSO control” value ([12]; 1 μM isoflavone) was “pronounced increase” and the “effect … compared to DMSO control” value ([12]; 100 μM isoflavone) was “no effect”.
For CC1(C)C[C@@H](O)[C@]2(C)CC[C@]3(C)C(=CC[C@@H]4[C@@]5(C)CC[C@H](O)[C@](C)(CO)[C@@H]5CC[C@]43C)[C@@H]2C1 [sapogenol B, Sapogenol B], the “rank of inhibitory potency among saponins” value ([13]; FIG. 11) was “most potent inhibitor”, the “inhibition of LPS-induced NO production” value ([13]; lowest concentrations, FIG. 11) was “Zero to minimal inhibition” and the “inhibitory effect on LPS-induced NO production” value ([13]; saponins in DMSO, FIG. 11) was “inhibited LPS-induced NO production”.
With “insulin: Human recombinant insulin (Sigma, #I2643)” the “effect on blood glucose levels” value ([14]; 200 U/kg oral gavage in liquid composition (Formula 2)) was “markedly reduced blood glucose levels” and the “effect on blood glucose levels” value ([14]; 200 U/kg oral gavage in water) was “no efficacy in reducing glucose levels”.
